Assay results reported in patent publication US11382946B2, “Multi-functional peptides and use thereof” (NOVACELL TECHNOLOGY INC., priority 2019, dated 2022).
Non-standard residues stand in square brackets, D forms with d. Residues, ends and D or L forms follow the SMILES beside them. *: point of attachment. 2Nal = N[C@@H](Cc1ccc2ccccc2c1)C(=O)O; Nle = CCCC[C@H](N)C(=O)O; Octanoyl = CCCCCCCC(=O)*

Columns and labels:
FPR2 = molecular target: T1, FPR2 (Homo sapiens, UniProt P25090); assay: FPR2 activation by intracellular calcium ion increase (Fura-2/AM) in FPR2-RBL cells; type: cell-based; conditions: RBL cells overexpressing FPR2
T1 construct: expressed in transfected cells; host or cells: RBL cells overexpressing FPR2 (FPR2-RBL)
T1 sequence (P25090 1-351): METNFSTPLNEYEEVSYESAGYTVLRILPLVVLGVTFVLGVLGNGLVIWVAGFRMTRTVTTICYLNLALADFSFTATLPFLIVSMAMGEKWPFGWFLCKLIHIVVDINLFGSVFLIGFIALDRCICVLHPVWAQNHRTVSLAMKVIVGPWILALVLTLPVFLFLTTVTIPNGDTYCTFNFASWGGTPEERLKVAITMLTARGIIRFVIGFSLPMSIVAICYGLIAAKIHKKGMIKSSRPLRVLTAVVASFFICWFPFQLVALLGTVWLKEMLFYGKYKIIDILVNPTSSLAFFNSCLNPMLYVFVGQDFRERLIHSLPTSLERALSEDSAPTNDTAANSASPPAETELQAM
Procedure: The present inventors observed a change in calcium ion permeability of the candidate peptides according to an embodiment of the present invention in order to determine whether they can activate the immunomodulatory function in a body or not. Particularly, intracellular concentration of calcium ions was measured to confirm that the peptide activates FPR2. RBL cells that do neither express FPR1 nor FPR2, RBL cells overexpressed FPR1 (FPR1-RBL) and RBL cells that overexpressed FPR2 (FPR2-RBL) were used and Fura-2/AM which is a fluorophore having high binding affinity to calcium in order to measure intracellular calcium ion level sensitively. For this purpose, cells were cultured in RPMI medium supplemented with 10% fetal bovine serum and harvested by centrifugation in log phase (mid-log phase, 1-3×10^7 cells/ml), and then washed several times with RPMI medium not supplemented with fetal bovine serum, and then the cells were resuspended in RPMI medium to 1×10^7 cells/ml. Subsequently, a final 3 μM concentration of Fura-2/AM was added and the cells were incubated for 45 minutes in a 37° C., 5% CO2 incubator. After the appropriated time, the cells are harvested, washed again with RPMI medium, and then suspended in the appropriate amount of RPMI medium supplemented with 250 μM of sulfinpyrazone, in order to prevent loss of Fura-2 entering the cells. About 2×10^6 cells were taken each time, harvested by rapid centrifugation, and resuspended in 1 ml of a Locke solution without addition of calcium ions and EGTA added, and the ratio of absorbance at two wavelengths of 340 nm and 380 nm on a spectrophotometer were monitored by treating the peptides according to an embodiment of the present invention at different concentrations (1 μM, 0.1 μM, and 0.01 μM) at intervals of about 1 minute, and then the difference in absorbance at two wavelengths was investigated. It was converted to the concentration of free calcium ions into cells according to the method of Grynkiewicz.

P. aeruginosa = type: cell-based, Pseudomonas aeruginosa; conditions: 18 h
Procedure: (§1) The present inventors evaluated […] in order to select peptides showing excellent performance among various peptides synthesized in the Example 1. Particularly, in order to measure the antimicrobial activity of the peptide, after preparing Gram-positive bacteria Staphylococcus aureus (S. aureus) and Gram-negative bacteria Pseudomonas aeruginosa (P. aeruginosa), the bacteria were plated on agar plate medium by fourth streaking and cultured overnight in a 36° C. incubator. The next day, the strain colonies produced on the agar plate medium were inoculated into 3 ml nutrient medium and cultured overnight in a stirring incubator at 36° C. and 220 rpm. The next day, the bacteria were diluted to measure absorbance at 600 nm, adjusted to OD600=0.5, and diluted in a 1:100 ratio in nutrient medium. Then, the peptides prepared in the above Examples were serially diluted in concentrations of 0, 1.25, 2.5, 5, 10, and 20 μM in a nutrient medium to prepare 1 ml each, and then inoculated with 1 ml of the diluted bacteria. Subsequently, the mixture was stirred under conditions of 36° C. and 220 rpm, and incubated for 18 hours, and absorbance at 600 nm was measured.
(§2) As a result, 20 peptides showing high antibacterial activity against P. aeruginosa and S. aureus) were selected (FIGS. 2 and 3).

S. aureus = type: cell-based, Staphylococcus aureus; conditions: 18 h
Procedure: as §1, §2

| Compound | EC50 (FPR2) [nM] | Antimicrobial activity (IC50, μg/ml) P. aeruginosa (P. aeruginosa) [µg/mL] | Antimicrobial activity (IC50, μg/ml) S. aureus (S. aureus) [µg/mL] |
| --- | --- | --- | --- |
| CCCCCCCC(=O)N[C@@H](CCCNC(=N)N)C(=O)N[C@@H](Cc1c[nH]c2ccccc12)C(=O)N[C@@H](CCCNC(=N)N)C(=O)N[C@@H](Cc1c[nH]c2ccccc12)C(=O)N[C@@H](Cc1ccc2ccccc2c1)C(=O)N[C@@H](Cc1c[nH]c2ccccc12)C(=O)N[C@H](CCSC)C(N)=O [Peptide V18, Oct-RWRWZWm-NH2] (Octanoyl-RWRW[2Nal]W[dM]-NH2) | 62.8 | 16.2 | 2.3 |
| CSCC[C@@H](NC(=O)[C@H](Cc1c[nH]c2ccccc12)NC(=O)[C@H](Cc1ccc2ccccc2c1)NC(=O)[C@H](Cc1c[nH]c2ccccc12)NC(=O)[C@H](CCCNC(=N)N)NC(=O)[C@H](Cc1c[nH]c2ccccc12)NC(=O)[C@@H](N)CCCNC(=N)N)C(N)=O [Peptide V18_0, RWRWZWm-NH2] (H-RWRW[2Nal]W[dM]-NH2) | 10 | 21.1 | 6.8 |
| CSCC[C@@H](NC(=O)[C@H](Cc1c[nH]c2ccccc12)NC(=O)[C@H](CCCNC(=N)N)NC(=O)[C@H](Cc1c[nH]c2ccccc12)NC(=O)[C@H](Cc1c[nH]c2ccccc12)NC(=O)[C@H](CCCNC(=N)N)NC(=O)[C@H](Cc1ccc2ccccc2c1)NC(C)=O)C(N)=O [Peptide V19_Ac, Ac-ZRWWRWm-NH2] (Ac-[2Nal]RWWRW[dM]-NH2) | 69.4 | >50 | 5.4 |
| CCCC[C@H](NC(=O)[C@H](Cc1c[nH]c2ccccc12)NC(=O)[C@H](Cc1c[nH]c2ccccc12)NC(=O)[C@H](CCCNC(=N)N)NC(=O)[C@H](Cc1ccc2ccccc2c1)NC(C)=O)C(=O)N[C@@H](Cc1c[nH]c2ccccc12)C(=O)N[C@H](CCSC)C(N)=O [Peptide V20_Ac, Ac-ZRWW-Nle-Wm-NH2] (Ac-[2Nal]RWW[Nle]W[dM]-NH2) | 45.3 | >50 | >50 |

Now from value to compound:

| EC50 (FPR2) [nM] | Antimicrobial activity (IC50, μg/ml) P. aeruginosa (P. aeruginosa) [µg/mL] | Antimicrobial activity (IC50, μg/ml) S. aureus (S. aureus) [µg/mL] | Compound |
| --- | --- | --- | --- |
| 92.3 | >50 | 9.4 | CSCC[C@@H](NC(=O)[C@@H](NC(=O)[C@H](CCCNC(=N)N)NC(=O)[C@H](Cc1c[nH]c2ccccc12)NC(=O)[C@H](Cc1c[nH]c2ccccc12)NC(=O)[C@H](CCCNC(=N)N)NC(=O)[C@H](Cc1ccc2ccccc2c1)NC(C)=O)C(C)C)C(N)=O [Peptide V21_Ac, Ac-ZRWWRVm-NH2] (Ac-[2Nal]RWWRV[dM]-NH2) |
| 16.2 | >50 | 13.6 | CSCC[C@@H](NC(=O)[C@H](Cc1c[nH]c2ccccc12)NC(=O)[C@H](CCCNC(=N)N)NC(=O)[C@H](Cc1c[nH]c2ccccc12)NC(=O)[C@H](Cc1c[nH]c2ccccc12)NC(=O)[C@@H](NC(=O)[C@H](CCCNC(=N)N)NC(=O)[C@H](Cc1c[nH]c2ccccc12)NC(=O)[C@H](Cc1c[nH]c2ccccc12)NC(=O)[C@H](CCCNC(=N)N)NC(=O)[C@H](Cc1ccc2ccccc2c1)NC(C)=O)C(C)C)C(N)=O [Peptide V22_Ac, Ac-ZRWWRVWWRWm-NH2] (Ac-[2Nal]RWWRVWWRW[dM]-NH2) |
| 61.3 | >50 | 13.3 | CCCC[C@H](NC(=O)[C@H](CCCNC(=N)N)NC(=O)[C@H](Cc1c[nH]c2ccccc12)NC(=O)[C@H](Cc1c[nH]c2ccccc12)NC(=O)[C@H](CCCNC(=N)N)NC(=O)[C@H](Cc1ccc2ccccc2c1)NC(C)=O)C(=O)N[C@@H](Cc1c[nH]c2ccccc12)C(=O)N[C@@H](Cc1c[nH]c2ccccc12)C(=O)N[C@@H](CCCNC(=N)N)C(=O)N[C@@H](Cc1c[nH]c2ccccc12)C(=O)N[C@H](CCSC)C(N)=O [Peptide V23_Ac, Ac-ZRWWR-Nle-WWRWm-NH2] (Ac-[2Nal]RWWR[Nle]WWRW[dM]-NH2) |
| 58.6 | 47.8 | 24.0 | CSCC[C@@H](NC(=O)[C@H](Cc1c[nH]c2ccccc12)NC(=O)[C@H](CCCNC(=N)N)NC(=O)[C@H](Cc1c[nH]c2ccccc12)NC(=O)[C@H](Cc1c[nH]c2ccccc12)NC(=O)[C@H](CCCNC(=N)N)NC(=O)[C@H](CCCNC(=N)N)NC(C)=O)C(N)=O [Peptide V24_Ac, Ac-RRWWRWm-NH2] (Ac-RRWWRW[dM]-NH2) |
